This assay addresses T1, human PDE2A1 (Homo sapiens, UniProt O00408).
T1 construct: GST; purchased BPS Bioscience (San Diego, Calif.) 60020; host or cells: insect cells
Nature of the assay: IMAP FP PDE selectivity panel, human PDE2A1. The note with it: Lab B; read-out: Human PDE2 Ki (nM) Lab B. It is filed as biochemical. In short, it runs like this:
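Human PDE2A1 tested alongside PDE1–11 by IMAP fluorescence polarization at room temperature. Substrate was 50 nM FAM-cAMP plus 1000 nM cGMP, buffer pH 7.2 with MgCl2 and DTT, enzyme set for 20% conversion. Ten 3-fold compound dilutions; 60 min reaction, then IMAP binding solution, 1 h, parallel/perpendicular fluorescence read.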
T1 sequence (O00408 1-920 isoform O00408-2): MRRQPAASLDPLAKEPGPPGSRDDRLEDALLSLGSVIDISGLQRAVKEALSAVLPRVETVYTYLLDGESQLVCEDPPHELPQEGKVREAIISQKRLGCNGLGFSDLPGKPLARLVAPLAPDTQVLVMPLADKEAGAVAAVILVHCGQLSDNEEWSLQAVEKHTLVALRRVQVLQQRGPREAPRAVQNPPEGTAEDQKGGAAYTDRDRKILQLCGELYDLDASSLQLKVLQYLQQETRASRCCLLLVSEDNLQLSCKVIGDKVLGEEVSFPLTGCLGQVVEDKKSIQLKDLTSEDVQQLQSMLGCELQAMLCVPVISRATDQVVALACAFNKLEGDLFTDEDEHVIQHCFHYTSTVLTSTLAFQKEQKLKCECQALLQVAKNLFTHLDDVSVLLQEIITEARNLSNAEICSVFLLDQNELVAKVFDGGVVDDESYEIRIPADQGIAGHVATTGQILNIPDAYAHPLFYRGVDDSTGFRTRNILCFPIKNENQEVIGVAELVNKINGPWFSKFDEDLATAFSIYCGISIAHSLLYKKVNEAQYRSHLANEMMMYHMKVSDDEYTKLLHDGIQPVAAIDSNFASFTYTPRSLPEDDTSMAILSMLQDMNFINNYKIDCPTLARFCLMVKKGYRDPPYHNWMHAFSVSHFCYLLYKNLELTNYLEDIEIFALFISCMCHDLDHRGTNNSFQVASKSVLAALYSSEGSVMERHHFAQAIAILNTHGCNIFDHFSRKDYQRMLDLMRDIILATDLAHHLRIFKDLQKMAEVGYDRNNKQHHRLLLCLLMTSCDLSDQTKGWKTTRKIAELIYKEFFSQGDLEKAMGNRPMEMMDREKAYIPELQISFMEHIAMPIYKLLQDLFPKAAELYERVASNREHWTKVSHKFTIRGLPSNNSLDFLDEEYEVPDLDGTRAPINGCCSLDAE
On to `CC[C@@H](Nc1cc(CO)cc2ncnn12)c1ccc(C(F)(F)F)c(F)c1` [Example 269, [5-({(1R)-1-[3-Fluoro-4-(trifluoromethyl)phenyl]propyl}amino)[1,2,4]triazolo [1,5-a]pyridin-7-yl] methanol], for which the Ki (commonly the equilibrium dissociation constant of an inhibitor or competing ligand from its target) is 181 nM.

As for `C[C@@H](Nc1cc(CO)nc2ncnn12)c1ccc(C(F)(F)F)c(F)c1` [Example 80, [7-({(1R)-1-[3-Fluoro-4-(trifluoromethyl)phenyl]ethyl}amino)[1,2,4]triazolo[1,5-a]pyrimidin-5-yl]methanol], the Ki was 387 nM.

Take `Cc1nc2ncnn2c(N[C@H](C)c2ccc(C(F)(F)F)cc2)c1C` [Example 85, 5,6-Dimethyl-N-{(1R)-1-[4-(trifluoromethyl)phenyl]ethyl}[1,2,4]triazolo[1,5-a]pyrimidin-7-amine]: the Ki was approximately 1160 nM.

As to `Cc1cc(O[C@H](c2ccc(C(F)(F)F)cc2)C(C)(C)C)n2ncnc2n1` (single isomer, unassigned) [Example 261], the Ki was more than 2960 nM.

Regarding `Cc1cc(NC(C)(C)c2ccc(SC(F)(F)F)cc2)n2ncnc2n1` [Example 55, 5-Methyl-N-(1-methyl-1-{4-[(trifluoromethyl)sulfanyl]phenyl}ethyl)[1,2,4]triazolo[1,5-a] pyrimidin-7-amine], the Ki amounted to 211 nM.

`COCc1cc(NC2(c3ccc(C(F)(F)F)c(F)c3)CC2)n2ncnc2n1` [Example 75, N-{1-[3-Fluoro-4-(trifluoromethyl)phenyl]cyclopropyl}-5-(methoxymethyl) [1,2,4]triazolo[1,5-a]pyrimidin-7-amine]: the Ki came out at 201 nM.

In the case of `CC(C)(O)[C@@H](Nc1cc(C(F)(F)F)cc2ncnn12)c1ccc(C(F)(F)F)cc1` [Example 277, (1S)-2-Methyl-1-[4-(trifluoromethyl)phenyl]-1-{[7-(trifluoromethyl)[1,2,4]triazolo [1,5-a]pyridin-5-yl]amino} propan-2-ol], the Ki stood at 87 nM.

Take `Cc1cc(NC(c2ccc(OC(F)(F)F)c(F)c2)C2COC2)n2ncnc2n1` (single isomer, unassigned) [Example 230, (S)- or (R)-N-((3-Fluoro-4-(trifluoromethoxy)phenyl)(oxetan-3-yl)methyl)-5-methyl-[1,2,4]triazolo [1,5-a]pyrimidin-7-amine]: the Ki came to 167 nM.

Consider `Cc1cc(NC2(c3ccc(C(F)(F)F)c(F)c3)CC2)n2ncnc2c1` [Example 263, N-(1-(3-Fluoro-4-(trifluoromethyl)phenyl)cyclopropyl)-7-methyl-[1,2,4]triazolo[1,5-a]pyridin-5-amine], for which the Ki turned out to be 101 nM.

In the case of `CN(C)c1cc(NC2(c3ccc(C(F)(F)F)c(F)c3)CC2)n2ncnc2n1` [Example 239, N^7-(1-(3-Fluoro-4-(trifluoromethyl)phenyl)cyclopropyl)-N,N-dimethyl-[1,2,4]triazolo[1,5-a]pyrimidine-5,7-diamine], the Ki came to 13 nM.

Consider `CC(O)c1cc(NC2(c3ccc(C(F)(F)F)c(F)c3)CC2)n2ncnc2c1` (stereo not drawn) [Example 275, 1-(5-((1-(3-Fluoro-4-(trifluoromethyl)phenyl)cyclopropyl)amino)-[1,2,4]triazolo[1,5-a]pyridin-7-yl)ethanol], for which the Ki came to 111 nM.

Regarding `CCCc1nc2nc(C)cc(N[C@@H](c3ccc(C(F)(F)F)c(F)c3)C(C)(C)C)n2n1` [Example 204, (R)-N-(1-(3-Fluoro-4-(trifluoromethyl)phenyl)-2,2-dimethylpropyl)-5-methyl-2-propyl-[1,2,4]triazolo [1,5-a]pyrimidin-7-amine], the Ki was 17 nM.

As for `Cc1cc(NC(c2ccc(C(F)(F)F)nc2)C(C)(C)O)n2ncnc2n1` (single isomer, unassigned) [Example 226, (S)- or (R)-2-Methyl-1-(5-methyl-[1,2,4]triazolo [1,5-a]pyrimidin-7-ylamino)-1-(6-(trifluoromethyl)pyridin-3-yl) propan-2-ol], the Ki came to 356 nM.

For the compound `Cc1cc(N[C@@H](c2ccc(C(F)(F)F)c(F)c2)C(C)(C)C)n2ncnc2n1` [Example 27, N-{(1R)-1-[3-Fluoro-4-(trifluoromethyl)phenyl]-2,2-dimethylpropyl}-5-methyl[1,2,4]triazolo[1,5-a] pyrimidin-7-amine], the Ki worked out at 10 nM.

Regarding `CC(C)(O)C(Nc1cc(C(F)(F)F)nc2ncnn12)c1ccc(OC(F)F)cc1` (single isomer, unassigned) [Example 165, (1S or R)-1-[4-(Difluoromethoxy)phenyl]-2-methyl-1-{[5-(trifluoromethyl) [1,2,4]triazolo [1,5-a]pyrimidin-7-yl]amino} propan-2-ol], the Ki worked out at 52 nM.

As to `Cc1cc(N[C@H](C)c2ccc(OC(F)(F)F)cc2)n2ncnc2n1` [Example 7, 5-Methyl-N-{(1R)-1-[4-(trifluoromethoxy)phenyl]ethyl} [1,2,4]triazolo[1,5-a]pyrimidin-7-amine], the Ki worked out at 132 nM.

Regarding `Cc1cc(NC(c2cc3ccccc3n2C)C(C)(C)O)n2ncnc2n1` (single isomer, unassigned) [Example 125, (1R or S)-2-Methyl-1-(1-methyl-1H-indol-2-yl)-1-[(5-methyl [1,2,4]triazolo [1,5-a]pyrimidin-7-yl)amino] propan-2-ol], the inhibitory constant (Ki) was more than 2960 nM.

With `Cc1cc(N[C@H](c2ccc(C(F)(F)F)c(F)c2)C(C)(C)O)nc2ncnn12` (single isomer, unassigned) [Example 291], the Ki worked out at 183 nM.

`Cc1nc2ncnn2c(N[C@@H](C)c2ccc(C(F)(F)F)cc2)c1C` [Example 86, 5,6-Dimethyl-N-{(1S)-1-[4-(trifluoromethyl)phenyl]ethyl}[1,2,4]triazolo[1,5-a]pyrimidin-7-amine]: the Ki is approximately 1750 nM.

As for `Cc1cc(N[C@@H](c2ccc(SC(F)(F)F)cc2)C2CC2)n2ncnc2n1` [Example 40, N-[(R)-Cyclopropyl{4-[(trifluoromethyl)sulfanyl]phenyl}methyl]-5-methyl[1,2,4]triazolo[1,5-a] pyrimidin-7-amine], the Ki was found to be 14 nM.

Take `CC(C)c1cc(NC(c2ccc(OC(F)(F)F)c(F)c2)C(C)(C)O)n2ncnc2n1` (single isomer, unassigned) [Example 138, (1S or R)-1-[3-Fluoro-4-(trifluoro-methoxy)phenyl]-2-methyl-1-{[5-(1-methylethyl) [1,2,4]triazolo [1,5-a]pyrimidin-7-yl]amino} propan-2-ol]: the Ki is approximately 1570 nM.

On to `CN(C)c1cc(N[C@@H](c2ccc(C(F)(F)F)c(F)c2)C(C)(C)C)n2ncnc2n1` [Example 242, (R)-N^7-(1-(3-Fluoro-4-(trifluoromethyl)phenyl)-2,2-dimethylpropy1)-N^5,N^5-dimethyl-[1,2,4]triazolo [1,5-a]pyrimidine-5,7-diamine], for which the Ki came out at 616 nM.

As for `Cc1cc(NC2(c3ccc(C(F)(F)F)c(F)c3)CC2)n2nc(N(C)C)nc2n1` [Example 256, N^7-{1-[3-Fluoro-4-(trifluoromethyl)phenyl]cyclopropyl}-N^2,N^2,5-trimethyl[1,2,4]triazolo[1,5-a]pyrimidine-2,7-diamine], the Ki amounted to 608 nM.

For the compound `Cc1cc(NC2(c3ccc(C(F)(F)F)c(F)c3)CC2)n2nc(N)nc2n1` [Example 255, N^7-{1-[3-Fluoro-4-(trifluoromethyl)phenyl]cyclopropyl}-5-methyl[1,2,4]triazolo[1,5-a]pyrimidine-2,7-diamine], the Ki came to 22 nM.

Take `CC(C)(O)C(Nc1cc(C(F)(F)F)nc2ncnn12)c1ccc(C(F)F)cc1` (single isomer, unassigned) [Example 164, (1R or S)-1-[4-(Difluoromethyl)phenyl]-2-methyl-1-{[5-(trifluoromethyl) [1,2,4]triazolo [1,5-a]pyrimidin-7-yl]amino} propan-2-ol]: the Ki was more than 2960 nM.

For the compound `Cc1cc(N(C)C2(c3ccc(C(F)(F)F)c(F)c3)CC2)n2ncnc2n1` [Example 246], the Ki amounted to 46 nM.

For `Cc1cc(N[C@@H](C)c2ccc(C(F)(F)F)cc2)n2ncnc2n1` [Example 2, 5-Methyl-N-{(1S)-1-[4-(trifluoromethyl)phenyl]ethyl}[1,2,4]triazolo[1,5-a]pyrimidin-7-amine], the Ki was approximately 1540 nM.

On to `CC(C)(C)c1cc(NC(c2ccc(OC(F)(F)F)cc2F)C(C)(C)O)n2ncnc2n1` (single isomer, unassigned) [Example 148, (1S or R)-1-[(5-tert-butyl[1,2,4]triazolo[1,5-a]pyrimidin-7-yl)amino]-1-[2-fluoro-4-(trifluoro-methoxy)phenyl]-2-methylpropan-2-ol], for which the Ki was more than 2960 nM.

With `Cc1cc(N[C@@H](c2ccc(F)c(OC(F)(F)F)c2)C(C)(C)O)n2ncnc2n1` [Example 130, (1S)-1-[4-Fluoro-3-(trifluoro-methoxy)phenyl]-2-methyl-1-[(5-methyl[1,2,4]triazolo[1,5-a]pyrimidin-7-yl)amino]propan-2-ol], the Ki stood at 2290 nM.

Take `COc1cc(N[C@@H](c2ccc(C(F)(F)F)c(F)c2)C(C)(C)C)n2ncnc2n1` [Example 233, (R)—N-(1-(3-Fluoro-4-(trifluoromethyl)phenyl)-2,2-dimethylpropyl)-5-methoxy-[1,2,4]triazolo[1,5-a]pyrimidin-7-amine]: the inhibition constant (Ki) turned out to be 256 nM.

For `Cc1cc(N[C@@H](c2ccc(C(F)(F)F)cc2)[C@H](C)O)n2ncnc2n1` [Example 90, (1S,2S)-1-[(5-Methyl[1,2,4]triazolo[1,5-a]pyrimidin-7-yl)amino]-1-[4-(trifluoromethyl)phenyl]propan-2-ol], the Ki was approximately 1790 nM.

As to `COc1cc(NC2(c3ccc(C(F)(F)F)c(F)c3)CC2)n2ncnc2n1` [Example 235, N-(1-(3-Fluoro-4-(trifluoromethyl)phenyl)cyclopropyl)-5-methoxy-[1,2,4]triazolo [1,5-a]pyrimidin-7-amine], the Ki worked out at 18 nM.

For the compound `Cc1cc(N[C@@H](c2ccc(C3CC3)cc2F)C(C)C)n2ncnc2n1` [Example 25, N-[(1R)-1-(4-Cyclopropyl-2-fluorophenyl)-2-methylpropyl]-5-methyl[1,2,4]triazolo[1,5-a] pyrimidin-7-amine], the Ki came to 9.9 nM.

Values taken from patent publication US10357481B2 (MERCK SHARP & DOHME CORP., priority 2015, dated 2019).
